Measurements from US20040214796A1, “Novel therapeutic application of enoxaparin” (AVENTIS PHARMA S.A., priority 2000, published 2004).
Marks after values point to notes of the source that are not given here.

Key:
cerebral ischemia [1] = experiment: Permanent focal cerebral ischemia in rats (left middle cerebral artery permanently cauterized, no carotid occlusion), Study 4; assay type: in vivo, rat (male Sprague Dawley); settings: Study 4 (permanent occlusion), 2 × 1.5 mg/kg iv
cerebral ischemia [2] = experiment: Transient focal cerebral ischemia in rats (2 h clamp of left middle cerebral artery plus carotid ligation, then reperfusion), Studies 1-3; assay type: in vivo, rat (male Sprague Dawley); settings: for reduction of the cortical lesion: vs control group; for CORTICAL LESION: mean ± S.E.M.
Method: Male Sprague Dawley rats (230-250 g Iffa Credo) are fed and watered ad libitum and kept in a light-dark cycle of 12 hours. Surgery was carried out under halothane (1.4% in a mixture of 70% N2O/30% O2). During anesthesia, normothermia is maintained by placing the rat under a thermostated cover. The left common carotid artery is isolated and a loose ligature is put in place. The left middle cerebral artery is exposed via a subtemporal craniotomy and a microclamp is placed in the proximal region of the artery, immediately followed by the ligation of the carotid artery. Two hours later, the animals are reanesthetized and the cerebral circulation is reestablished by removing the clamp from the middle cerebral artery and the ligature from the carotid artery. The rats are then placed in their cage in a thermostated room at 26-28° C. 48 hours after the surgery, a neurological examination is carried out for each rat by an examiner unaware of the treatment. The neurological scale used is described in Table 1. [table] After the neurological examination, the rats are humanely killed and their brains removed. 1.5 mm thick serial sections are prepared and stained with 2,3,5-triphenyltetrazolium chloride (TTC) at 2%. After 24 hours of post-fixing in a 10% formaldehyde solution, the lesion areas (cerebral infarct) are measured at the cortical and striatal levels; the volumes are calculated by integrating the lesioned surface areas. The values are expressed in mm^3 (mean ±S.E.M). Statistical analysis was carried out by a Mann-Whitney test or by a Kruskal-Wallis test for non-parametric variance analysis followed by a Dunn test for comparison between groups (*:p<0.05, **:p<0.01, ***:p<0.001 vs control group). In Study 1, enoxaparin is administered to 12 rats at 1.5 mg/kg iv, 2 hours and 24 hours after the onset of the ischemia. A control group of 10 rats receives only the vehicle (physiological solution of sodium chloride at 0.9%) following the same protocol. In Study 2, the therapeutic window of opportunity for enoxaparin is explored. The treatment starts 5 hours after the ischemia followed by a second administration at 24 hours. This study consists in an enoxaparin dose-effect on the cerebral lesions. The doses studied are 0.5:1 and 1.5 mg/kg iv (9-10 rats per group). A control group of 11 rats receives only the vehicle (physiological solution of sodium chloride at 0.9%). In Study 3, enoxaparin is administered to 10 rats at 1.5 mg/kg iv, 5 and 24 hours after the onset of the ischemia. The control group of 13 rats receives only the vehicle (physiological solution of sodium chloride at 0.9%).

With Enoxaparin the “reduction of the cortical lesion” value (cerebral ischemia [1]; 5 h and 24 h, vs control group) was 49%, the “CORTICAL LESION” value (cerebral ischemia [1]; 5 h and 24 h after onset of ischemia, mean ± S.E.M.) was 71 ± 13* mm^3 and the “reduction of the cortical lesion” value (cerebral ischemia [2]; Study 1, 2 × 1.5 mg/kg iv, 2 h and 24 h) was 30%. For the same substance, the “CORTICAL LESION” value (cerebral ischemia [2]; Study 1, 2 × 1.5 mg/kg iv, 2 h and 24 h after onset of ischemia, measured 48 h after surgery) was 131 ± 13* mm^3, the “CORTICAL LESION” value (cerebral ischemia [2]; Study 2, 2 × 0.5 mg/kg iv, 5 h and 24 h after ischemia) was 164 ± 15 mm^3 and the “reduction of the cortical lesion” value (cerebral ischemia [2]; Study 2, 2×1 mg/kg iv, 5 h and 24 h) was 30%. The “CORTICAL LESION” value (cerebral ischemia [2]; Study 2, 2 × 1 mg/kg iv, 5 h and 24 h after ischemia) was 142 ± 24* mm^3, the “reduction of the cortical lesion” value (cerebral ischemia [2]; Study 2, 2×1.5 mg/kg iv, 5 h and 24 h) was 36% and the “CORTICAL LESION” value (cerebral ischemia [2]; Study 2, 2 × 1.5 mg/kg iv, 5 h and 24 h after ischemia) was 129 ± 17* mm^3. The “reduction of the cortical lesion” value (cerebral ischemia [2]; Study 3, 2 × 1.5 mg/kg iv, 5 h and 24 h) was 34%, the “CORTICAL LESION” value (cerebral ischemia [2]; Study 3, 2 × 1.5 mg/kg iv, 5 h and 24 h after onset of ischemia) was 129 ± 16** mm^3 and the bleeding (cerebral ischemia [2]; during Studies 1-4, 0.5-1.5 mg/kg iv, two administrations) was “No problem of bleeding was encountered”.
